Legend:
[1] = system: cyclophosphamide-induced bladder overactivity; experiment: Cystometrograms, subacute bladder irritation by cyclophosphamide, i.v. drug; type: in vivo, rats
Protocol: (§1) Cystometrograms (CMGs) were performed under urethane anesthesia (1 g/kg s.c.) using a catheter inserted into the bladder through the bladder dome via a midline abdominal incision. Saline was infused at a rate of 0.04 ml/min to elicit repetitive bladder contractions. Effects of intravenous (i.v.) injection of Compound 3a on bladder overactivity induced by either intravesical administration of acetic acid solution or one day treatment with cyclophosphamide were investigated. […] Thus, these compounds can be effective for the treatment of pain and urinary frequency symptoms in patients with painful bladder syndrome/interstitial cystitis.
One day after intraperitoneal injection of cyclophosphamide (CYP, 150 mg/kg), control CMGs were recorded for 1 to 2 hour prior to i.v. administration of Compound 3a or vehicle. See, example i, above. Following administration of Compound 3a, changes in cystometric parameters such as ICIs, MVP, PT and BP were recorded to evaluate the effects of Compound 3a on cyclophosphamide-induced bladder overactivity.
Bladder overactivity indicated by significant ICI reductions was observed one day after CYP injection.

[2] = system: bladder overactivity induced by intravesical administration of acetic acid solution; experiment: Cystometrograms, acute bladder irritation by acetic acid infusion, i.v. drug; type: in vivo, rats; settings: for intercontraction interval (ICI), % of the control value: 0.25% acetic acid infusion, vehicle 42.9%; for pressure threshold (PT), % of the control value: vehicle 87.1%
Protocol: as §1
Saline infusion was performed for 1 to 2 hours prior to drug (or vehicle) administration and control CMGs were recorded. Compound 3a (aka CT-3 or IP-751, dissolved in 30% Cremophor EL saline solution; three concentrations of 1, 3, and 10 mg/kg) or vehicle was administrated intravenously when starting infusion of acetic acid solution (0.25%) into the bladder.
Changes in cystometric parameters such as intercontraction intervals (ICIs), maximum voiding pressure (MVP), pressure threshold (PT) and baseline pressure (BP) were evaluated before and after i.v. administration of Compound 3a or vehicle.
In the vehicle group, 0.25% acetic acid infusion induced significant bladder overactivity, as evidenced by a reduction in ICIs to 42.9% of the control value.

[3] = system: bladder hyperactivity induced by infusing acetic acid; experiment: Instillation of liposomal drug 24 h / 48 h before acetic acid-induced bladder hyperactivity (CMG); type: in vivo, rats; settings: intravesical, two subjects per group
Protocol: Similarly, instillation of liposomal-Compound 3a was first conducted. Then, 24 hours and 48 hours after instillation, under urethane anesthesia, bladder hyperactivity was induced by infusing acetic acid at the concentration of 0.125% and 025%. Prior to acetic acid infusion, baseline CMG was conducted by saline infusion (0.04 ml/min) to measure intercontraction interval (ICI). A percentage reduction in ICI was measured following acetic acid infusion as an indicator of bladder irritation.
(§2) See, FIGS. 9B and 9C, respectively. Each group consisted of a minimum of seven subjects, except for those of a preliminary dose response study, where two subjects were used in each group. The preliminary dose response study indicated an optimal Compound 3a dose of 0.8 mg/ml. See, FIG. 9A. In these experiments, 1.6 mg/ml was highest concentration of Compound 3a encapsulated into liposomes; higher concentrations apparently compromised formulation stability.

[4] = Encapsulation into liposomes / formulation stability; type: physicochemical
Protocol: as §2

[5] = CYP-treated rats, after administration
[6] = 10 mg/kg, worded as 'expected to increase'

## CCCCCCC(C)(C)c1cc(O)c2c(c1)OC(C)(C)[C@@H]1CC=C(C(=O)O)CC21 (stereo partly drawn) [Compound 3a, (6aR,10aR)-Δ^8-THC-DMH-11-oic Acid]
[1]; 10 mg/kg i.v., CYP-treated rats
  CYP-induced bladder overactivity: significantly suppressed
[1]; 10 mg/kg i.v., one day after CYP 150 mg/kg i.p., control value 3.65 min, vehicle 3.89 vs. 3.94 min
  intercontraction interval (ICI) after drug: 5.14 min
[1]; [5]
  baseline pressure (BP), change: No significant changes
  maximum voiding pressure (MVP), change: No significant changes
  pressure threshold (PT), change: No significant changes
[2]; 1 mg/kg i.v.
  intercontraction interval (ICI), % of the control value: 45.2 % of the control value
  pressure threshold (PT), % of the control value: 74.1 % of the control value
[2]; 3 mg/kg i.v.
  intercontraction interval (ICI), % of the control value: 51.1 % of the control value
  pressure threshold (PT), % of the control value: 94.1 % of the control value
[2]; 10 mg/kg i.v., P<0.05, n=6
  intercontraction interval (ICI), % of the control value: 112.4 % of the control value
[2]; 10 mg/kg i.v., without affecting bladder contractions during voiding
  acetic acid-induced bladder overactivity: significantly suppressed
[2]; [6]
  pressure threshold (PT), % of the control value: 127.2 % of the control value
[2]; i.v., acetic acid infusion
  baseline pressure (BP), change: No significant changes
  maximum voiding pressure (MVP), change: No significant changes
[3]
  optimal dose in preliminary dose response study: 0.8 mg/mL
[4]
  highest concentration encapsulated into liposomes (higher concentrations compromised formulation stability): 1.6 mg/mL

## CCCCCCC(C)(C)c1cc(OC(C)=O)c2c(c1)OC(C)(C)[C@@H]1CC=C(C(=O)O)C[C@@H]21 [Compound 3c, (6aR,10aR)-Δ^8-THC-DMH-11-oic Acid Acetate]
[2]; [6]
  pressure threshold (PT), % of the control value: 127.2 % of the control value
